From patent publication USRE45272E1, “β-glucuronide-linker drug conjugates” (priority 2005, dated 2014)
Where a name gives a salt, the structure may show the parent alone. Read-outs that look alike come from different tables or passages of the source. Values belong to the compound of their own block, whether it stands above or below them. Square brackets hold non-standard residues; d marks the D form. Peptide text beside a SMILES is read from it. * marks the point of attachment. Dolaproine = CO[C@@H]([C@@H]1CCCN1)[C@@H](C)C(=O)O; Dil = CC[C@H](C)[C@H](NC)[C@@H](CC(=O)O)OC; X1 = C[C@@H](N*)[C@@H](O)c1ccccc1; NMeV = CN[C@H](C(=O)O)C(C)C

How the values were obtained:
Format in all cases: cell-based
[1] = test system: Caki-1 (CD70+, CD30−) renal cell carcinoma cells; assay: In vitro growth inhibition (resazurin), Caki-1
Procedure: (§1) In vitro growth inhibition. Cells were collected and plated in 96 well black-sided plates at a density of 10,000 cells/well in 150 μL of medium. Serial dilutions of the ADC (50 μL) were added, and incubation was carried out for 92 h at 37° C. After addition of ADC, cultures were incubated to 96 h at 37° C. Resazurin (0.25 mM, 50 μL, Sigma, St. Louis, Mo.) in medium was added and incubation was continued for 4 h. The plates were read on a Fusion HT microplate reader (Packard, Meriden, Conn.) using an excitation wavelength of 525 nm and an emission wavelength of 590 nm. Data from all assays were reduced using GraphPad Prism Version 4 for Windows (GraphPad Software, San Diego, Calif.). The IC50 concentrations compared to untreated control cells were determined using a 4 parameter curve fits.

[2] = test system: 786-O (CD70+, CD30−) renal cell carcinoma cells; assay: In vitro growth inhibition (resazurin), 786-O
Procedure: as §1

[3] = test system: Karpas 299 (CD30+, CD70−) ALCL cells; assay: In vitro growth inhibition (resazurin), Karpas 299
Procedure: as §1

[4] = test system: Caki-1, 786-O and Karpas 299 cell lines; assay: In vitro cytotoxicity, statements across Caki-1, 786-O and Karpas 299; details: for IC50: read-out: IC50 on Caki-1, 786-O and Karpas 299 (all lines)
Procedure: as §1
Results. […] The negative charge associated with the carboxylate group of 1b leads to reduced cytotoxic activity, presumably due to impaired intracellular access.
The ADCs of 9b effectively delivered 1b to the targeted cells. […] Conjugates of doxorubicin drug-linker 17 gave the same general profile with effective cell kill on antigen positive cell lines and specificity values >16-fold.

[5] = 96 h exposure, resazurin metabolism, vs untreated cells, drug content, read-out: Caki-1 (CD70+, CD30−) IC50 drug
[6] = 96 h exposure, resazurin metabolism, vs untreated cells, drug content, read-out: 786-O (CD70+, CD30−) IC50 drug
[7] = 96 h exposure, resazurin metabolism, vs untreated cells, drug content, read-out: Karpas 299 (CD30+, CD70−) IC50 drug

Structure (SMILES): CC[C@H](C)[C@@H]([C@@H](CC(=O)N1CCC[C@H]1[C@H](OC)[C@@H](C)C(=O)N[C@@H](Cc1ccccc1)C(=O)O)OC)N(C)C(=O)[C@@H](NC(=O)[C@@H](NC)C(C)C)C(C)C [Compound 1b, N-methylvaline-valine-dolaisoleuine-dolaproine-phenylalanine] (HELM PEPTIDE1{[meV].V.[CC[C@H](C)[C@@H]([C@@H](CC(=O)[*:2])OC)N(C)[*:1]].[CO[C@H]([C@@H](C)C(=O)[*:2])[C@@H]1CCCN1[*:1]].F}$$$$V2.0)
IC50 [1, 5]: 270 nM
IC50 [2, 6]: 300 nM
IC50 [3, 7]: 100 nM
IC50 ([4]; statement for all three cell lines): 100 to 200 nM

Structure (SMILES): COc1cccc2c1C(=O)c1c(O)c3c(c(O)c1C2=O)C[C@@](O)(C(=O)CO)CC3OC1CC(NCCCC(OC(C)=O)OC(C)=O)C(O)C(C)O1 (stereo partly drawn) [Compound 18]
IC50 ([1]; Homo sapiens, CAKI-1, 96 h, read-out: Caki-1 (CD70+, CD30−) IC50 drug nM): 0.04 nM
IC50 ([2]; Homo sapiens, 786-0, 96 h, read-out: 786-O (CD70+, CD30−) IC50 drug nM): 0.01 nM
IC50 ([3]; Homo sapiens, KARPAS-299, 96 h, read-out: Karpas 299 (CD30+, CD70−) IC50 drug nM): 0.1 nM
fold more cytotoxic than doxorubicin (15) ([4]; across Caki-1, 786-O, Karpas 299): 300-6500 fold
IC50 [4]: < 0.2 nM

IC50 ([1]; Homo sapiens, CAKI-1, 96 h exposure, resazurin metabolism, vs untreated cells, drug content, read-out: Caki-1 (CD70+, CD30−) IC50 drug): 110 nM
IC50 ([2]; Homo sapiens, 786-0, 96 h exposure, resazurin metabolism, vs untreated cells, drug content, read-out: 786-O (CD70+, CD30−) IC50 drug): 65 nM
IC50 ([3]; Homo sapiens, KARPAS-299, 96 h exposure, resazurin metabolism, vs untreated cells, drug content, read-out: Karpas 299 (CD30+, CD70−) IC50 drug): 29 nM
Structure (SMILES): COc1cccc2c1C(=O)c1c(O)c3c(c(O)c1C2=O)C[C@@](O)(C(=O)CO)C[C@@H]3O[C@H]1C[C@H](N)[C@H](O)[C@H](C)O1 [Compound 15, doxorubicin-HCl]

Structure (SMILES): CC[C@H](C)[C@@H]([C@@H](CC(=O)N1CCC[C@H]1[C@H](OC)[C@@H](C)C(=O)N[C@H](C)[C@@H](O)c1ccccc1)OC)N(C)C(=O)[C@@H](NC(=O)[C@@H](NC)C(C)C)C(C)C [Compound 1a, monomethyl auristatin E] (H-[NMeV]V[Dil][Dolaproine]-X1)
IC50 [1, 5]: 0.11 nM
IC50 [2, 6]: 0.19 nM
IC50 [3, 7]: 0.09 nM
